Assay results reported in US8487006B2, “Method of enhancing TGF-β signalling” (Auxagen, Inc., priority 2008, dated 2013).

Legend:
Assay type in all cases: cell-based
[1] = test system: TGF-β1-stimulated Smad2 phosphorylation in Mv1Lu cells; test: TGF-β1-stimulated Smad2 phosphorylation, quantitative Western blot (P-Smad2/Smad2); conditions: for time dependence of the effect on TGF-β1-stimulated Smad2 phosphorylation: 20 LM MDC, 40 μM monensin, 20 μM TFP, 100 pM TGF-β1, several time periods; for concentration dependence of the effect on TGF-β1-stimulated Smad2 phosphorylation: several concentrations of the inhibitors, 100 pM TGF-β1 for 30 min
Procedure: (A-I, K) Cells were pretreated with 10 mg/ml β-CD (A, K), 20 LM MDC (B), 40 μM monensin (C), 20 μM TFP (D) and 0.45 M sucrose (K) or several concentrations (as indicated) of β-CD (E), TFP (F), monensin (G), chloroquine (H), dynasore (I), at 37° C. for 1 h. The cells were then stimulated with vehicle only or […] TGF-β1 (A to I) or several concentrations (as indicated) of TGF-β1 (K). After several time periods, as indicated, at 37° C., cell lysates were analysed by 7.5% SDS PAGE followed by Western blot analysis using antibodies to P-Smad2 and Smad2 and chemiluminescence development (a or top) and quantitation by densitometry (b or bottom). The relative level of P-Smad2 was expressed as arbitrary units (A.U.) (A, B, C, D, K) (b). The relative level of P-Smad2 in cells treated with TGF-β alone was taken as 100% of control (E to I, bottom). The data shown is representative of 3 independent experiments. (J) Cells were pretreated with 10 mg/ml β-CD (c,d) at 37° C. for 1 h. The cells were then stimulated with vehicle only (a) or with 100 pM TGF-β (b,d). After 30 min at 37° C. the cells were fixed and subjected to indirect immunofluorescent staining using antibody to P-Smad2. The magnification is 200×. The data shown is representative of 3 independent experiments.
If TGF-β-induced signaling occurs in endosomes, as reported previously^6-15, inhibitors of clathrin-dependent endocytosis would be expected to attenuate TGF-β-stimulated signaling such as Smad2 phosphorylation and nuclear colocalization^4,5. To test this, Mv1Lu cells were pretreated with vehicle only or with clathrin-dependent endocytosis inhibitors at 37° C. for 30 min and then treated with or without 100 pM TGF-β1. After several time periods, the relative levels of P-Smad2 in treated and stimulated cells were analyzed by quantitative Western blot analysis using antibodies to P-Smad2 and Smad2. […] After stimulation of cells with TGF-β1 for 60 min, β-CD, TFP, MDC and monensin enhanced TGF-β1-stimulated Smad2 phosphorylation by ˜1.5-2.5 fold (FIGS. 1Ab, 1Bb, 1Cb, and 1Db). To further characterize the effects of these inhibitors on Smad2 phosphorylation, Mv1Lu cells were pretreated with vehicle only or with several concentrations of the inhibitors at 37° C. for 30 min and then stimulated with 100 pM of TGF-β1. After 30 min at 37° C., cell lysates were subjected to Western blot analysis using antibodies to P-Smad2 and Smad2 followed by quantitation with densitometry. […] To determine the effect of β-CD on TGF-β1-stimulated nuclear localization of P-Smad2, Mv1Lu cells were pretreated with vehicle only or with β-CD (10 mg/ml). After 1 h at 37° C., cells were stimulated with TGF-β1 ([…]) for 30 min. The nuclear localization of P-Smad2 was then analyzed by indirect fluorescent staining.
To define the coated-pit stages that are important in TGF-β1-induced signaling, we treated Mv1Lu cells with hyperosmotic sucrose (0.45 M) or β-CD and examined TGF-β1-stimulated Smad2 phosphorylation in these cells. […] In cells stimulated with 100 pM TGF-β1, hyperosmotic sucrose attenuated Smad2 phosphorylation by ˜60% (FIG. 1Kb). On the other hand, β-CD enhanced TGF-β1-stimulated Smad2 phosphorylation at all concentrations of TGF-β1. It enhanced TGF-β1-stimulated Smad2 phosphorylation by 2-4 fold when compared with the control (treatment without β-CD) (FIGS. 1Ka and 1Kb).

[2] = test system: TβR-I and SARA at the plasma membrane in Mv1Lu cells; test: Co-localization and accumulation of TβR-I and SARA, immunofluorescent microscopy; conditions: 20 μM TFP, 10 mg/ml β-CD, 40 μM dynasore, 200 μM chloroquine, with 100 pM TGF-β1, 30 min
Procedure: Cells were pretreated with vehicle only or 20 μM TFP, 10 mg/ml β-CD, 40 μM dynasore (Dyn) and 200 μM chloroquine (CQ) at 37° C. for 1 h. Treated cells were then stimulated with and without 100 pM TGF-β1. After 30 min at 37° C., cells were fixed and analyzed by indirect immunofluorescent staining using antibody to TβR-I (panels 1-10) and SARA (panels 11-20), DAPI (nuclear) staining was also performed (panels 21-30). Merged staining is also shown (panels 31-40). Insets indicate the co-localization and accumulation of SARA and TβR-I at the plasma membrane.
TGF-β stimulates Smad2 phosphorylation by inducing association of TβR-I and SARA^6,7 (which serves as an anchor for Smad2), binding of Smad2 to SARA, and subsequent phosphorylation of Smad2 by TβR-I in the TβR-1-SARA-Smad2 complex. If clathrin-dependent endocytosis inhibitors enhance TGF-β-induced signaling (TGF-β-stimulated Smad2 phosphorylation) by increasing accumulation of TβR-I/TβR-II complexes at the coated pits, they should promote co-localization and accumulation of TβR-I and SARA at the plasma membrane. To test this, Mv1Lu cells were stimulated with 100 pM TGF-β1. After 30 min at 37° C., […] analyzed by immunofluorescent microscopy using antibodies to TβR-I and SARA. […] This is consistent with the previous report that TGF-β enhances TGF-β receptor internalization^16.

[3] = test system: nuclear localization of P-Smad2 in Mv1Lu cells; test: Nuclear localization of P-Smad2, indirect immunofluorescent staining; conditions: β-CD 10 mg/ml 1 h, then TGF-β1 (10 pM) for 30 min
Procedure: (A-I, K) Cells were pretreated with 10 mg/ml β-CD (A, K), 20 LM MDC (B), 40 μM monensin (C), 20 μM TFP (D) and 0.45 M sucrose (K) or several concentrations (as indicated) of β-CD (E), TFP (F), monensin (G), chloroquine (H), dynasore (I), at 37° C. for 1 h. The cells were then stimulated with vehicle only or […] TGF-β1 (A to I) or several concentrations (as indicated) of TGF-β1 (K). After several time periods, as indicated, at 37° C., cell lysates were analysed by 7.5% SDS PAGE followed by Western blot analysis using antibodies to P-Smad2 and Smad2 and chemiluminescence development (a or top) and quantitation by densitometry (b or bottom). The relative level of P-Smad2 was expressed as arbitrary units (A.U.) (A, B, C, D, K) (b). […]
If TGF-β-induced signaling occurs in endosomes, as reported previously^6-15, inhibitors of clathrin-dependent endocytosis would be expected to attenuate TGF-β-stimulated signaling such as Smad2 phosphorylation and nuclear colocalization^4,5. […] After several time periods, the relative levels of P-Smad2 in treated and stimulated cells were analyzed by quantitative Western blot analysis using antibodies to P-Smad2 and Smad2. […] After 30 min at 37° C., cell lysates were subjected to Western blot analysis using antibodies to P-Smad2 and Smad2 followed by quantitation with densitometry. […]

Row | Molecule | time dependence of the effect on TGF-β1-stimulated Smad2 phosphorylation ([1]; 10 mg/ml β-CD) | co-localization and accumulation of TβR-I and SARA at the plasma membrane, co-treatment with TGF-β1 [2] | concentration dependence of the effect on TGF-β1-stimulated Smad2 phosphorylation [1] | attenuation of Smad2 phosphorylation ([1]; hyperosmotic sucrose 0.45 M, cells stimulated with 100 pM TGF-β1) [%] | effect on TGF-β1-stimulated Smad2 phosphorylation ([1]; hyperosmotic sucrose 0.45 M, various concentrations of TGF-β1) | enhancement of TGF-β1-stimulated Smad2 phosphorylation compared with the control (treatment without β-CD) ([1]; 10 mg/ml β-CD, all concentrations of TGF-β1) | nuclear localization of P-Smad2 [3]
1 | CN(C)c1cccc2c(S(=O)(=O)NCCCCCN)cccc12 [MDC, monodansylcadaverine] | enhanced TGF-β1-stimulated Smad2 phosphorylation in a time-dependent manner |  |  |  |  |  | 
2 | CN(C)CCCN1c2ccccc2Sc2ccc(C(F)(F)F)cc21 [TFP, triflupromazine] | enhanced TGF-β1-stimulated Smad2 phosphorylation in a time-dependent manner | promoted co-localization and accumulation of TβR-I and SARA at the plasma membrane | enhanced TGF-β1-stimulated Smad2 phosphorylation in a concentration-dependent manner |  |  |  | 
3 | CCN(CC)CCCC(C)Nc1ccnc2cc(Cl)ccc12 (stereo not drawn) [chloroquine] |  | promoted co-localization and accumulation of TβR-I and SARA at the plasma membrane | enhanced TGF-β1-stimulated Smad2 phosphorylation in a concentration-dependent manner |  |  |  | 
4 | OC[C@H]1O[C@@](CO)(O[C@H]2O[C@H](CO)[C@@H](O)[C@H](O)[C@H]2O)[C@@H](O)[C@@H]1O [hyperosmotic sucrose, sucrose] |  |  |  | ~60 | inhibited TGF-β1-stimulated Smad2 phosphorylation |  | 
5 | CC[C@@]1([C@@H]2O[C@@H]([C@H]3O[C@@](O)(CO)[C@H](C)C[C@@H]3C)C[C@@H]2C)CC[C@H]([C@]2(C)CC[C@]3(C[C@H](O)[C@@H](C)[C@@H]([C@@H](C)[C@@H](OC)[C@H](C)C(=O)O)O3)O2)O1 [monensin] | enhanced TGF-β1-stimulated Smad2 phosphorylation in a time-dependent manner |  | enhanced TGF-β1-stimulated Smad2 phosphorylation in a concentration-dependent manner |  |  |  | 
6 | methyl-β-cyclodextrin [β-CD] | enhanced TGF-β1-stimulated Smad2 phosphorylation in a time-dependent manner | promoted co-localization and accumulation of TβR-I and SARA at the plasma membrane | enhanced TGF-β1-stimulated Smad2 phosphorylation in a concentration-dependent manner |  |  | 2-4 fold | β-CD and TGF-β1 together promoted nuclear localization of P-Smad2
